Structures are written as SMILES.

For 12 molecules, Ki and Ratio Ki results are on record in ChEMBL document CHEMBL4152222, “Structural insights into serotonin receptor ligands polypharmacology” (Eur J Med Chem, 2018).

Assay [1] concerns the target T1, 5-hydroxytryptamine receptor 1A (Homo sapiens, UniProt P08908).
T1 sequence (P08908 whole entry): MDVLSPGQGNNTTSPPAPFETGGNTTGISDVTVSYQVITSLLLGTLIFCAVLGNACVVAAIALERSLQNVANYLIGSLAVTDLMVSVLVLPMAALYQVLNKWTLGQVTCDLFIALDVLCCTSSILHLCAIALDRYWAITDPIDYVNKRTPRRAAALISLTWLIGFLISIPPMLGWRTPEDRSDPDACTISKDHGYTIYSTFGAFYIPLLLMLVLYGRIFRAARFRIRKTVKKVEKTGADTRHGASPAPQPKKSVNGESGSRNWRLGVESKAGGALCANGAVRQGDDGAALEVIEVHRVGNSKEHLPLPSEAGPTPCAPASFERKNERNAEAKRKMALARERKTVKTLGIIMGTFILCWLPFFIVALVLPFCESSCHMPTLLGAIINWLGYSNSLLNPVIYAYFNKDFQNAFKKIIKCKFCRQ
In words: Displacement of [3H]-8-OH-DPAT from human 5-HT1A receptor expressed in HEK293 cell membranes after 1 hr by microbeta TopCount analysis.

Assay [2] has as its target 5-hydroxytryptamine receptor 6 (Homo sapiens, UniProt P50406). Description: Displacement of [3H]-LSD from human 5-HT6 receptor expressed in HEK293 cell membranes after 1 hr by microbeta TopCount analysis.
In assay [3] the target is 5-hydroxytryptamine receptor 7 (Homo sapiens, UniProt P34969). Description: Displacement of [3H]-5-CT from human 5-HT7b receptor expressed in HEK293 cell membranes after 1 hr by microbeta TopCount analysis.
For assay [4], the species on record is Homo sapiens. Description: Selectivity index, ratio of Ki for human 5-HT7B receptor to Ki for human 5-HT6 receptor.
The species entered for assay [5] is Homo sapiens. In words: Selectivity index, ratio of Ki for human 5-HT1A receptor to Ki for human 5-HT7B receptor.
The species entered for assay [6] is Homo sapiens. Description: Selectivity index, ratio of Ki for human 5-HT1A receptor to Ki for human 5-HT6 receptor.

Chain of 5-hydroxytryptamine receptor 6 (P50406 whole entry): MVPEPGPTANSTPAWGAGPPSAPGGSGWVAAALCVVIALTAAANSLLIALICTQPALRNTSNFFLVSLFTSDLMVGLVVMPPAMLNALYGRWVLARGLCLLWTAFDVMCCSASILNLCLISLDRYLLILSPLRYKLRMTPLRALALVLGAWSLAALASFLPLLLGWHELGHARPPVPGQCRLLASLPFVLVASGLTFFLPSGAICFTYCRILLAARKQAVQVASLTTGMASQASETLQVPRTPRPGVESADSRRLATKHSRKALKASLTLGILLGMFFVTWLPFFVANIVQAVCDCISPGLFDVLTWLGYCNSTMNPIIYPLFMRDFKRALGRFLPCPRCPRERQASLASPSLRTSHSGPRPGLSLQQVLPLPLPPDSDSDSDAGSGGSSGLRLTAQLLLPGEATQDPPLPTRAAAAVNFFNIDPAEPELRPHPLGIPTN
Chain of 5-hydroxytryptamine receptor 7 (P34969 whole entry): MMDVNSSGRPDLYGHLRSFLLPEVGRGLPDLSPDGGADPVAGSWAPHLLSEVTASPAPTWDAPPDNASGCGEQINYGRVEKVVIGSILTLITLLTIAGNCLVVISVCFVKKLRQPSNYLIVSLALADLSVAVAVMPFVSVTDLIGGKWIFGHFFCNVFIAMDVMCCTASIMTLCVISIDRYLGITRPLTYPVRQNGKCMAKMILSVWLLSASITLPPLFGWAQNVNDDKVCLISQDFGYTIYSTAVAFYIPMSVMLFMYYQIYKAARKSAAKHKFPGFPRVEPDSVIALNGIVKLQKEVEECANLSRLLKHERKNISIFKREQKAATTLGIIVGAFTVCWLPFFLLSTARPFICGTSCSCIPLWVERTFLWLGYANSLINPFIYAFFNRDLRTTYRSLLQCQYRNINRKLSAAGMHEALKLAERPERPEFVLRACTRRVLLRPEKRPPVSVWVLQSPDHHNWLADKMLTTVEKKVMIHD

Regarding `Cc1ccc(C(C)(C)CC(C)NCc2ccc(C(F)(F)F)cc2)o1` (configuration not stated), the Ki was found to be 31.4 µM in assay [1], 5.8 µM in assay [2] and 6.1 µM in assay [3]. Further, the Ratio Ki in assay [4] amounted to 1; in assay [5], 5; in assay [6] it was 5.
Consider `COc1cc(CNCCC2=CCCCC2)ccc1OCc1ccccc1`, for which the values for the Ki in assay [1], in assay [2] and in assay [3] were 4.9 µM, 2.7 µM and 8 µM, respectively. The values for the Ratio Ki in assay [4], in assay [5] and in assay [6] were 3, 0.6 and 2, respectively.
Take `CC(NCCC(Cc1ccccc1)c1ccco1)c1ccc(Cl)cc1` (configuration not stated): the Ki turned out to be 7.1 µM in assay [1], 1.4 µM in assay [2] and 3.8 µM in assay [3]. The values for the Ratio Ki in assay [4], in assay [5] and in assay [6] were 3, 2 and 5, respectively.
On to `O[C@H](CCN1CCc2onc(-c3ccc(F)c(F)c3)c2C1)c1ccccc1`, for which the Ki in assay [1] stood at 330 µM; in assay [2], 9 µM; in assay [3], 71.2 µM. For the same molecule, the Ratio Ki in assay [4] amounted to 8; in assay [5], 5; in assay [6], 37.
As to `Cc1ccc(C(CCNC(C)c2ccc(Cl)cc2)c2ccco2)cc1` (configuration not stated), the Ki was 9.1 µM in assay [1], 2.5 µM in assay [2] and 8.4 µM in assay [3]. The Ratio Ki in assay [4] was 3; in assay [5], 1; in assay [6] it was 4.
In the case of `COc1ccc(CNCCC(c2ccco2)c2ccccc2OC)cc1` (configuration not stated), the Ki in assay [1] came to 6.1 µM; in assay [2], 2.4 µM; in assay [3], 10.4 µM. Further, the results for the Ratio Ki in assay [4], in assay [5] and in assay [6] were 4, 0.6 and 2, respectively.
In the case of `Cc1ccc(COc2ccc(Br)cc2CNC(C)c2ccccc2)cc1` (configuration not stated), the Ki in assay [1] was 196 µM; in assay [2] it was 5.1 µM; in assay [3] it was 3.7 µM. Moreover, the Ratio Ki in assay [4] was determined as 0.7; in assay [5], 54; in assay [6], 38.
For `Cc1ccc(C(C)NCCC(c2ccc(F)cc2)c2ccco2)cc1` (configuration not stated), the inhibition constant (Ki) in assay [1] amounted to 6.1 µM; in assay [2] it was 1.8 µM; in assay [3] it was 12.5 µM. In addition, the figures for the Ratio Ki in assay [4], in assay [5] and in assay [6] were 7, 0.5 and 3, respectively.
For `O=C1N(Cc2ccccc2)C(c2ccccc2)=NC1(Nc1ccccn1)C(F)(F)F` (configuration not stated), the figures for the Ki in assay [1], in assay [2] and in assay [3] were 284 µM, 1.9 µM and 84.5 µM, respectively. Moreover, the results for the Ratio Ki in assay [4], in assay [5] and in assay [6] were 44, 3 and 149, respectively.
Turning to `COc1ccc(CNCCC(c2ccccc2)c2ccc3c(c2)OCO3)cc1` (configuration not stated), the inhibitory constant (Ki) amounted to 15.6 µM in assay [1], 3.7 µM in assay [2] and 14.1 µM in assay [3]. For the same molecule, the Ratio Ki was found to be 4 in assay [4], 1 in assay [5] and 4 in assay [6].
For the molecule `CCC1(C)CC(CCNCc2ccc(OC)c(OC)c2)(c2ccc(C)cc2)CCO1` (configuration not stated), the Ki in assay [1] was found to be 36.8 µM; in assay [2] it was 3.4 µM; in assay [3], 37.2 µM. The Ratio Ki stood at 11 in assay [4], 1 in assay [5] and 11 in assay [6].
As to `CCC1(C)CC(CCNCc2ccccc2)(c2ccc(C)cc2)CCO1` (configuration not stated), the Ki in assay [1] turned out to be 41.8 µM; in assay [2] it was 5.6 µM; in assay [3] it was 10.1 µM. Moreover, the Ratio Ki in assay [4] turned out to be 2; in assay [5], 4; in assay [6], 8.
